Results taken from US20260284018A1, “DUAL INHIBITORS OF DYRK1A AND 5-HT2 FOR TREATING A BRAIN DISORDER” (THE REGENTS OF THE UNIVERSITY OF CALIFORNIA, priority 2023, published 2026).

Key:
C57BL/6J mice = experiment: Head-twitch response; assay type: in vivo; details: for head-twitch response: intraperitoneal, up to 30 mg/kg
Protocol: Animals. Female C57BL/6J mice used in the head twitch response and locomotion assays, and Sprague Dawley dams used to generate embryonic cultures were obtained from Jackson Laboratory (Sacramento, CA). Mice were housed in a temperature- and humidity-controlled room maintained on a 12 h light/dark cycle in groups of four to five (same sex). Animals weighed between 17 and 30 g at the time of the experiments. All experimental procedures involving rodents were approved by the UC Davis Institutional Animal Care and Use Committee (IACUC) and adhered to principles described in the National Institutes of Health Guide for the Care and Use of Laboratory Animals. The University of California, Davis is accredited by the Association for Assessment and Accreditation of Laboratory Animal Care International (AAALAC).
Head-Twitch Response and Locomotion. Mice (9-10 weeks old) were injected intraperitoneally with compounds dissolved in 10% Kolliphor® EL (Sigma) and 10% DMSO in 0.9% saline (injection volume 5 mL/kg) or vehicle, placed in an empty cage, and filmed for 10 min. Locomotion was quantified using ANYmaze Video Tracking System, version 7.07 (Stoelting Co.). After 10 min, mice were then injected with 5-MeO-DMT dissolved in 0.9% saline (10 mg/kg, injection volume 5 mL/kg) or vehicle and filmed for 20 min. Cages were cleaned with 70% ethanol between experiments. […] The last 20 min of each video were scored by one trained observer blinded to the treatment conditions.

phospho-Tau = experiment: Phospho-Tau assay using cultured rat cortical neurons (okadaic acid insult); assay type: cell-based; details: 30 nM okadaic acid; for Tau phosphorylated at Ser202/Thr205: 50 μM pretreatment; for Tau phosphorylated at Ser202/Thr205 / Tau phosphorylated at Ser396: rat cortical neurons; for hyperphosphorylation of Tau (pTau accumulation) induced by okadaic acid / Tau phosphorylated at Ser396: pretreatment; for hyperphosphorylation of Tau (pTau accumulation) induced by okadaic acid: rat cortical cultures, FIG. 14 and 15B
Protocol: Phospho-Tau Assay Using Cultured Rat Cortical Neurons. Primary cortical cell cultures were prepared as described previously.^2 Briefly, pregnant Sprague Dawley dams were euthanized at embryonic day 18 (E18), and the cortices of the pups were harvested. Cells were plated on poly-d-lysine coated plates at 15,000 cells per well. Cultures were maintained at 37° C. under an atmosphere containing 5% CO2. Plating media consisted of 10% heat-inactivated fetal bovine serum (FBS; Fisher) 1% penicillin-streptomycin (Fisher), and 0.5 mM glutamine (Life Technologies) in Neurobasal (Fisher). After 16-24 h, media was exchanged for replacement media consisting of IX B27 supplement (Fisher), 1% penicillin-streptomycin, 0.5 mM glutamine, and 12.5 μM glutamate in Neurobasal. On DIV6 and DIV13, 50% of media was removed, and feeding media containing 1×B27 supplement, 1% penicillin-streptomycin, 0.5 mM glutamine in Neurobasal was added with an additional 20% volume added to account for evaporation. On DIV14, the volume of each well was adjusted to 180 μL. Next, 1000× solutions of compounds in DMSO were diluted 1:100 into Neurobasal and 20 μL of the resulting solutions was added to the appropriate wells (total dilution=1:1000, 0.1% DMSO). For wells that were not treated with compounds, DMSO was diluted 1:100 into Neurobasal and 20 μL of the resulting solution was added to the appropriate wells. All treatments were randomized. After 24 h, 20 μL was removed from each well. […] After 1 h, neurons were fixed by removing 80% of the media and replacing it with a volume of 4% aqueous paraformaldehyde (ThermoFisher) equal to 50% of the working volume of the well. Then, the cells were incubated at room temperature for 15 min before the fixative was aspirated and each well was washed twice with DPBS. Cells were permeabilized using 0.2% Triton X-100 (ThermoFisher) in DPBS for 15 min at room temperature without shaking. Plates were blocked with blocking buffer (2% bovine serum albumin and […] in DPBS) overnight at 4° C. Then, plates were incubated overnight at 4° C. with gentle shaking in antibody dilution buffer (ADB) (1% bovine serum albumin and […] in DBPS) containing a chicken anti-MAP2 antibody (1:10,000; EnCor, CPCA-MAP2), guinea pig anti-Tau antibody (1:1000; Synaptic Systems), mouse anti-phosphoTau (Ser202/Thr205) antibody (1:1000; Invitrogen), and rabbit anti-phosphoTau (Ser396) antibody (1:1000; Invitrogen). Plates were washed twice with DPBS and once with ADB before being incubated for 1 h at room temperature in ADB containing an anti-chicken IgY secondary antibody conjugated to Alexa Fluor™ Plus 800 (1:1000; Invitrogen), an anti-mouse IgG secondary antibody conjugated to Alexa Fluor™ Plus 680 (1:1000; Invitrogen), an anti-guinea pig IgG secondary antibody conjugated to Alexa Fluor™ 596 (1:1000; Invitrogen), and an anti-rabbit IgG secondary antibody conjugated to Alexa Fluor™ Plus 488 (1:1000; Invitrogen). Plates were washed three times with DBPS, and after the final wash, 100 μL of DPBS was added per well before imaging on a CellInsight™ CX7 High Content Analysis imager at 20× with 12 ROIs taken per well with no bias to location and no overlap of the ROIs. Images were analyzed using Cellnomics Scan software (version 6.6.2). The compartmental analysis assay was used to measure the average intensity of each channel per field and determine the reported intensity ratios.

Row | Structure (SMILES) | dampening of head-twitch response produced by 5-MeO-DMT (C57BL/6J mice; 30 mg/kg pretreatment, 10 mg/kg 5-MeO-DMT) | head-twitch response (C57BL/6J mice) | Tau phosphorylated at Ser202/Thr205 (phospho-Tau) | hyperphosphorylation of Tau (pTau accumulation) induced by okadaic acid (phospho-Tau) | Tau phosphorylated at Ser396 (phospho-Tau)
1 | COc1ccc2c3ccnc(C)c3n(CCN(C)C)c2c1.O=C(O)/C=C/C(=O)O [HTW_A_8 fumarate, 2-(7-methoxy-1-methyl-9H-pyrido[3,4-b]indol-9-yl)-N,N-dimethylethan-1-amine Fumarate Salt (2:3)] | sufficient to dampen the head-twitch response | failed to produce a head-twitch response | can block an increase in Tau phosphorylated at Ser202/Thr205 | blocks hyperphosphorylation of Tau | no reduction
2 | COc1ccc2c(c1)N(CCN(C)C)/C(=C/C(C)=O)S2.O=C(O)/C=C/C(=O)O [HTW_B_14 fumarate, (Z)-1-(3-(2-(dimethylamino)ethyl)-5-methoxybenzo[d]thiazol-2(3H)-ylidene)propan-2-one Fumarate Salt (1:1)] |  | failed to produce a head-twitch response | not observed |  | no reduction
3 | COc1ccc2c(c1)[nH]c1c(C)nccc12 [Harmine, harmine] |  |  |  | prevents pTau accumulation in cortical neurons | 
